Here are results for one molecule from publication PMC11445181 (Frontiers in Plant Science, 2024).

For the assay, the target named is T1, LcCOMT (Conioselinum anthriscoides, UniProt A0A0K1YW34).
T1 construct: full-length cDNA in pET28a, His-tagged, E. coli BL21 (DE3), Ni-agarose purified; homodimer (N-terminal dimerization domain)
T1 sequence (A0A0K1YW34 1-362): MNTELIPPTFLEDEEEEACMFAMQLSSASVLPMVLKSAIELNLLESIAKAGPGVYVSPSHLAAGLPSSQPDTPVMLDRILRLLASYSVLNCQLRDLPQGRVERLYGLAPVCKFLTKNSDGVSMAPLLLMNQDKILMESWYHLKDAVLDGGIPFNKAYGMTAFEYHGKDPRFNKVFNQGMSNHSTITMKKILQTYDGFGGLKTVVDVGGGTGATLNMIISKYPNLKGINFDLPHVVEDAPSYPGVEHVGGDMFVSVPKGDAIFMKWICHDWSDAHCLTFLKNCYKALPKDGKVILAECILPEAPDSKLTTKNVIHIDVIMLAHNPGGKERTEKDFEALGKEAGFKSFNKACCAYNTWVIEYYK
Briefly: inhibition of N-acetylserotonin methylation. The conditions noted are these: 2.0 mM N-acetylserotonin; caffeic acid is itself a substrate (competing substrate). The class given is biochemical.

For `O=C(O)/C=C/c1ccc(O)c(O)c1` [caffeic acid], the “% reduction in activity at 1.0 mM” value came out at 31.80%.
